Earlier results on 22 compounds are cited in patent US10759976B2, “Color changeable adhesives and methods of making such adhesives” (Sensor International, LLC, priority 2018, dated 2020).

Usually pKa stands for the negative logarithm of the acid dissociation constant.

For one data set the following is noted: Table 2, carbon dioxide sensitive pigments/dyes.
On to “5′ and 6′-Carboxyseminaphtholfluorescein”, for which the pKa is recorded as 7.4.

Turning to 5′ and 6′-Carboxyseminaphtholrhodamine, the pKa is recorded as 7.5.

For `O=S(=O)(O)c1cc(O)c2ccc3c(S(=O)(=O)O)cc(S(=O)(=O)O)c4ccc1c2c34` [1, Hydroxypyrene-3,6,8-trisulphonic acid], the pKa is listed as 8.1.

Take `O=C(O)Cc1cc(=O)oc2cc(O)ccc12` [7-hydroxycoumarin-4-acetic acid]: the pKa is listed as 7.8.

As for `O=S1(=O)OC(c2ccc(O)cc2)(c2ccc(O)cc2)c2ccccc21` [Phenol Red, phenolsulfonphthalein], the pKa was 7.6.

`Cc1cc(O)c(C(C)C)cc1C1(c2cc(C(C)C)c(O)cc2C)OS(=O)(=O)c2ccccc21` [Thymol blue, thymolsulphonephthalein]: the pKa is given as 9.0.

Turning to `Cc1cc(O)c(C(C)C)cc1C1(c2cc(C(C)C)c(O)cc2C)OC(=O)c2ccccc21` [Thymolphthalein, 3,3-bis(4-hydroxy-2-methyl-5-propan-2-ylphenyl)-2-benzofuran-1-one], the pKa is reported as 9.7.

For `Cc1cc(O)ccc1C1(c2ccc(O)cc2C)OS(=O)(=O)c2ccccc21` [m-Cresol Purple], the pKa is listed as 8.3.

Turning to o-Cresolphthalein, the pKa was 9.4.

The same data set, now with this note: Table 3, fluorimetric pigments/dyes.
In the case of `O=S(=O)(O)c1cc(O)c2ccc3c(S(=O)(=O)O)cc(S(=O)(=O)O)c4ccc1c2c34` [1, Hydroxypyrene-3,6,8-trisulphonic acid], the pKa is given as 8.1.

`NC(=O)NN=Cc1ccccc1O` [salicylaldehyde semicarbazone]: the pKa is listed as 7.8.

Staying with this data set, now noted: Table 4, ammonia sensitive pigments/dyes.
On to `O=C1c2ccccc2C(=O)c2c1cc(S(=O)(=O)O)c(O)c2O` [Alizarin red S], for which the pKa was 4.5.

For the compound `O=C1c2ccccc2C(=O)c2c1ccc(O)c2O` [Alizarin], the pKa is given as 6.8.

Consider `O=S1(=O)OC(c2cc(Cl)c(O)c(Br)c2)(c2cc(Cl)c(O)c(Br)c2)c2ccccc21` [Bromochlorophenol blue], for which the pKa is on record as 6.0.

As to `Cc1c(C2(c3cc(Br)c(O)c(Br)c3C)OS(=O)(=O)c3ccccc32)cc(Br)c(O)c1Br` [Bromocresol green], the pKa is 4.7.

Turning to `O=S1(=O)OC(c2cc(Br)c(O)c(Br)c2)(c2cc(Br)c(O)c(Br)c2)c2ccccc21` [Bromophenol blue], the pKa is given as 3.9.

With `O=S1(=O)OC(c2ccc(O)c(Cl)c2)(c2ccc(O)c(Cl)c2)c2ccccc21` [Chlorophenol red], the pKa is reported as 6.3.

For `CCN(CC)c1ccc(N=Nc2ccc(S(=O)(=O)[O-])cc2)cc1.[K+]` [Ethyl orange], the pKa is 4.3.

Turning to `CN(C)c1ccc(N=Nc2ccc(S(=O)(=O)[O-])cc2)cc1.[Na+]` [Methyl Orange], the pKa is 4.2.

Consider `CN(C)c1ccc(/N=N/c2ccccc2C(=O)O)cc1` [Methyl red], for which the pKa is 5.4.

For the compound `CN(C)c1ccc(N=Nc2ccccc2)cc1` [Methyl yellow], the pKa is reported as 3.3.

Turning to `O=S1(=O)OC(c2ccc(O)cc2)(c2ccc(O)cc2)c2ccccc21` [Phenol Red, phenolsulfonphthalein], the pKa is recorded as 7.6.

For the compound `O=C([O-])c1c(Cl)c(Cl)c(Cl)c(Cl)c1-c1c2cc(Br)c(=O)c(Br)c-2oc2c(Br)c([O-])c(Br)cc12.[Na+].[Na+]` [Phloxine B], the pKa is 2.5.

Consider `Cc1cc(O)c(C(C)C)cc1C1(c2cc(C(C)C)c(O)cc2C)OS(=O)(=O)c2ccccc21` [Thymol blue, thymolsulphonephthalein], for which the pKa was 1.6.

In the case of `Cc1cc(O)ccc1C1(c2ccc(O)cc2C)OS(=O)(=O)c2ccccc21` [m-Cresol Purple], the pKa is reported as 1.5.

With Nitrazine yellow, the pKa is 6.4.
